Assay results reported in US11229636B2, “Substituted tetrahydroquinolinone compounds as ROR gamma modulators” (Aurigene Discovery Technologies Limited, priority 2015, dated 2022).

Key:
[1] = target: ROR gamma ligand binding domain (Homo sapiens (Human), UniProt P51449); test: ROR gamma luciferase reporter assay (GAL4-ROR gamma LBD, HEK293 cells); type: cell-based; details: 48 hours treatment, read-out: RORγ luciferase Reporter assay: IC50 (nM) (in range)
Experimental: The Ligand Binding Domain (LBD) of ROR gamma was cloned into pFN26A (BIND) hRluc-neo Flexi vector (Promega) which expresses a fusion protein comprised of a DNA binding domain of the yeast GAL4 gene, a linker segment and ROR gamma ligand binding domain. For the reporter assay 0.02×10^6 HEK293 cells were seeded per well in a 96 well plate in complete media and incubated overnight in an incubator with 5% CO2 at 37° C. before transfection. Cells were then co-transfected with pFN26A hRluc-neo Flexi vector containing the LBD of ROR gamma and pGL4.35 [luc2P/9XGAL4 UAS/Hygro] Vector (Promega) in low serum media. Post transfection and recovery, cells were treated with the test compounds for 48 hours. The assay was terminated using the Bright-Glo Luciferase assay system from Promega and the Luminescence was measured using a luminescence reader. The luminescence values were used to calculate the potency of the compounds.

RORγ LBD = RORγ LBD (Homo sapiens (Human), UniProt P51449); test: ROR gamma radio-ligand binding assay (3H 25-Hydroxycholesterol competitive displacement, dextran charcoal method); details: for inhibition at 1 µM: 1 μM compound; for inhibition at 10 µM: 10 μM compound; for IC50: in range
RORγ LBD, sequence (P51449 268-518): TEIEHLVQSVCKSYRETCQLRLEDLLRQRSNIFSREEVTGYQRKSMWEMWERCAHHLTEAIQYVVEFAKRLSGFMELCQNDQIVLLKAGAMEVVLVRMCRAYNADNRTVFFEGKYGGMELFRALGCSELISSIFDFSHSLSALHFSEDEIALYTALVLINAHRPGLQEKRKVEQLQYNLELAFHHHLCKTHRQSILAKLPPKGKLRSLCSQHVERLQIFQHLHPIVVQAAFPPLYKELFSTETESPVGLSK
Experimental: Gene corresponding to the ligand binding domain of RORγ (247-497 amino acids) was sub-cloned into pGEX4T1 vector. Transformants of E. coli BL21 (DE3) containing pGEX4T1-RORγ (247-497) were grown to an OD of 0.8 at 37° C. and induced with 0.5 mM isopropyl-β-D-thiogalactopyranoside (IPTG) for 18 hours at 18° C. Cells were harvested and resuspended in 20 mM Tris-HCl (pH 8.5), 0.3 M NaCl, 10% Glycerol, 2 mM β-Me (β-Mercaptoethanol), 2 mM CHAPS, protease inhibitors, 0.6 mM PMSF and Lysozyme. Supernatant of lysate was passed through glutathione sepharose 4B affinity beads (GE health care) pre-equilibrated with 20 mM Tris-HCl (pH 8.5), 0.3 M NaCl, 10% Glycerol, 2 mM β-Me. RORγ was eluted using a gradient of reduced glutathione (3-20 mM). Fractions containing RORγ protein were pooled, concentrated and passed through Superdex 75 gel filtration (GE health care) column equilibrated with 20 mM Na-phosphate pH 8.0, 0.2 M NaCl, 10% glycerol. The peak fractions from gel filtration column were pooled and stored at −80° C. for Binding assay.
ROR gamma radioligand binding was performed using ^3H 25-Hydroxycholesterol in a competitive displacement assay using dextran charcoal method. Using 5 nM ^3H 25-Hydroxycholesterol with 300 ng RORγ LBD (in house expressed in E. coli) along with the compound were incubated in the binding buffer (50 mM HEPES, pH 7.5, 150 mM NaCl, 0.01% BSA and 5 mM MgCl2) for 30 min at room temperature. Then dextran-charcoal mixture (0.5% charcoal: 0.05% dextran) was used for separation and the supernatant was read on the Perkin Elmer Trilux Microbeta counter. Dose response curves were generated for 10 compound concentrations using GraphPad Prism software Version 5 (San Diego, Calif., USA) using non-linear regression curve fit for sigmoidal dose response (variable slope).

ROR gamma ligand binding domain, sequence (P51449 269-508): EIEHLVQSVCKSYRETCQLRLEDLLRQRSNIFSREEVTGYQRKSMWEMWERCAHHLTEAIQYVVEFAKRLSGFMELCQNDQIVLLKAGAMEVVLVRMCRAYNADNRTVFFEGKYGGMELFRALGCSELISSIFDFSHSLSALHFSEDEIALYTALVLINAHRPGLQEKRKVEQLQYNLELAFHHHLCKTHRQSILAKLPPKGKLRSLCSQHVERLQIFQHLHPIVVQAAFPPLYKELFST

Row | IC50 [1] | inhibition at 1 µM (RORγ LBD) | inhibition at 10 µM (RORγ LBD) | IC50 (RORγ LBD) | Compound
1 | 100 to 500 nM |  |  |  | CCS(=O)(=O)c1ccc(CC(=O)Nc2cc(C)c3c(n2)CCC(C)(c2ccc(N(C)C)nn2)C3=O)cc1 (stereo not drawn) [Compound 98, N-(6-(6-(dimethylamino)pyridazin-3-yl)-4,6-dimethyl-5-oxo-5,6,7,8-tetrahydroquinolin-2-yl)-2-(4-(ethylsulfonyl)phenyl)acetamide]
2 |  | 96% | 109% | < 150 nM | CCc1cc(C2(C)CCc3nc(NC(=O)Cc4ccc(S(=O)(=O)CC)cc4)ccc3C2=O)nc(CC)n1 (stereo not drawn) [compound 133, N-(6-(2,6-diethylpyrimidin-4-yl)-6-methyl-5-oxo-5,6,7,8-tetrahydroquinolin-2-yl)-2-(4-(ethylsulfonyl)phenyl)acetamide]
3 | > 500 nM |  |  |  | CCS(=O)(=O)c1ccc(CC(=O)Nc2cc(C)c3c(n2)CCC(C)(c2ccc(=O)n(C)n2)C3=O)cc1 (stereo not drawn) [Compound 70, N-(4,6-dimethyl-6-(1-methyl-6-oxo-1,6-dihydropyridazin-3-yl)-5-oxo-5,6,7,8-tetrahydroquinolin-2-yl)-2-(4-(ethylsulfonyl)phenyl)acetamide]
4 |  | 90% | 104% | < 150 nM | CCS(=O)(=O)c1ccc(CC(=O)Nc2cc(C)c3c(n2)CCC(C)(c2cc(C)nc(OC)n2)C3=O)cc1 (stereo not drawn) [Compound-135, 2-(4-(ethylsulfonyl)phenyl)-N-(6-(2-methoxy-6-methylpyrimidin-4-yl)-4,6-dimethyl-5-oxo-5,6,7,8-tetrahydroquinolin-2-yl)acetamide]
5 | < 100 nM |  |  |  | CCS(=O)(=O)c1ccc(CNC(=O)c2ccc3c(n2)CCC(C)(c2cc(C)nc(C)n2)C3=O)cc1 (single isomer, unassigned) [compound 125, 6-(2,6-dimethylpyrimidin-4-yl)-N-(4-(ethylsulfonyl)benzyl)-6-methyl-5-oxo-5,6,7,8-tetrahydroquinoline-2-carboxamide]
6 | > 500 nM |  |  |  | Cc1cn2ccnc(C3(C)CCc4nc(NC(=O)Cc5ccc(S(C)(=O)=O)cc5)ccc4C3=O)c2n1 (stereo not drawn) [Compound 59, N-(6-methyl-6-(2-methylimidazo[1,2-a]pyrazin-8-yl)-5-oxo-5,6,7,8-tetrahydroquinolin-2-yl)-2-(4-(methylsulfonyl)phenyl)acetamide]
7 | > 500 nM |  |  |  | CCS(=O)(=O)c1ccc(CC(=O)Nc2ccc3c(n2)CCC(C)(c2cc(C(F)(F)F)nc(C)n2)C3=O)cc1 (stereo not drawn) [Compound 67, 2-(4-(ethylsulfonyl)phenyl)-N-(6-methyl-6-(2-methyl-6-(trifluoromethyl)-pyrimidin-4-yl)-5-oxo-5,6,7,8-tetrahydroquinolin-2-yl)acetamide]
8 |  | 51% | 42% |  | CCc1cc(C2(C)CCc3nc(NC(=O)Cc4ccc(S(=O)(=O)CC)cc4)ccc3C2=O)nc(C)n1 (stereo not drawn) [Compound-131]
9 |  | 90% | 74% | < 150 nM | CCS(=O)(=O)c1ccc(CC(=O)Nc2cc(C)c3c(n2)CCC(C)(c2ncc(OC)cn2)C3=O)cc1 (stereo not drawn) [Compound 61, 2-(4-(ethylsulfonyl)phenyl)-N-(6-(5-methoxypyrimidin-2-yl)-4,6-dimethyl-5-oxo-5,6,7,8-tetrahydroquinolin-2-yl)acetamide]
10 |  | 82% | 99% | 150 to 300 nM | CCS(=O)(=O)c1ccc(CC(=O)Nc2ccc3c(n2)CC(C)(C)C(c2ncccc2O)C3=O)cc1 (stereo not drawn) [Compound 87, 2-(4-(ethylsulfonyl)phenyl)-N-(6-(3-hydroxypyridin-2-yl)-7,7-dimethyl-5-oxo-5,6,7,8-tetrahydroquinolin-2-yl)acetamide]
11 |  | 82% |  | < 150 nM | CCS(=O)(=O)c1ccc(CC(=O)Nc2cc(C)c3c(n2)CCC(C)(c2ccc4c(c2)ncn4C)C3=O)cc1 (stereo not drawn) [Compound 43, N-(4,6-dimethyl-6-(1-methyl-1H-benzo[d]imidazol-5-yl)-5-oxo-5,6,7,8-tetrahydroquinolin-2-yl)-2-(4-(ethylsulfonyl)phenyl)acetamide]
12 |  | 98% | 98% | 150 to 300 nM | CCS(=O)(=O)c1ccc(CC(=O)Nc2cc(C)c3c(n2)CCC(C)(c2cccc(OC)n2)C3=O)cc1 (stereo not drawn) [Compound 19, 2-(4-(ethylsulfonyl)phenyl)-N-(6-(6-methoxypyridin-2-yl)-4,6-dimethyl-5-oxo-5,6,7,8-tetrahydroquinolin-2-yl)acetamide]
13 |  | 79% | 110% | < 150 nM | CCS(=O)(=O)c1ccc(CC(=O)Nc2cc3c(cn2)C(=O)C(C)(c2cc(C)nc(C)n2)CC3)cc1 (stereo not drawn) [compound 128, N-(7-(2,6-dimethylpyrimidin-4-yl)-7-methyl-8-oxo-5,6,7,8-tetrahydroisoquinolin-3-yl)-2-(4-(ethylsulfonyl)phenyl)acetamide]
14 |  | 72% | 100% | < 150 nM | CCS(=O)(=O)c1ccc(CC(=O)Nc2cc(C)c3c(n2)CCC(C)(c2c(C)ccnc2O)C3=O)cc1 (stereo not drawn) [Compound 86, 2-(4-(ethylsulfonyl)phenyl)-N-(6-(2-hydroxy-4-methylpyridin-3-yl)-4,6-dimethyl-5-oxo-5,6,7,8-tetrahydroquinolin-2-yl)acetamide]
15 |  | 94% | 92% | < 150 nM | CCS(=O)(=O)c1ccc(CC(=O)Nc2cc(C)c3c(n2)CCC(C)(c2ccc4c(c2)OCO4)C3=O)cc1 (stereo not drawn) [Compound 42, N-(6-(benzo[d][1,3]dioxol-5-yl)-4,6-dimethyl-5-oxo-5,6,7,8-tetrahydroquinolin-2-yl)-2-(4-(ethylsulfonyl)phenyl)acetamide]
16 |  | 56% | 92% | > 300 nM | CCS(=O)(=O)c1ccc(CC(=O)Nc2ccc3c(n2)CCC(C)(n2nc(C)cc2C)C3=O)cc1 (stereo not drawn) [Compound 46, N-(6-(3,5-dimethyl-1H-pyrazol-1-yl)-6-methyl-5-oxo-5,6,7,8-tetrahydroquinolin-2-yl)-2-(4-(ethylsulfonyl)phenyl)acetamide]
17 |  | 82% | 98% | < 150 nM | CCS(=O)(=O)c1ccc(CC(=O)Nc2cc(C)c3c(n2)CCC(C)(n2cccn2)C3=O)cc1 (stereo not drawn) [Compound 47]
18 |  | 99% | 103% | < 150 nM | CCc1nc(C)cc(C2(C)CCc3nc(NC(=O)Cc4ccc(S(=O)(=O)CC)cc4)ccc3C2=O)n1 (stereo not drawn) [compound 132, N-(6-(2-ethyl-6-methylpyrimidin-4-yl)-6-methyl-5-oxo-5,6,7,8-tetrahydroquinolin-2-yl)-2-(4-(ethylsulfonyl)phenyl)acetamide]
19 |  | 62% | 95% | > 300 nM | CCS(=O)(=O)c1ccc(CC(=O)Nc2cc(C)c3c(n2)CCC(C)(c2ncccc2O)C3=O)cc1 (stereo not drawn) [Compound 85, 2-(4-(ethylsulfonyl)phenyl)-N-(6-(3-hydroxypyridin-2-yl)-4,6-dimethyl-5-oxo-5,6,7,8-tetrahydroquinolin-2-yl)acetamide]
20 |  | 82% | 100% | 150 to 300 nM | CCS(=O)(=O)c1ccc(CC(=O)Nc2cc(C)c3c(n2)CCC(C)(c2cccnc2O)C3=O)cc1 (stereo not drawn) [Compound 84, 2-(4-(ethylsulfonyl)phenyl)-N-(6-(2-hydroxypyridin-3-yl)-4,6-dimethyl-5-oxo-5,6,7,8-tetrahydroquinolin-2-yl)acetamide]
